{"source": "patent US20090005437A1", "about": "“Alpha-Ketoglutarates and Their Use as Therapeutic Agents” (priority 2004, published 2009)", "key": {"[1]": {"tested_on": "PHD", "experiment": "PHD activity in cells co-expressing GFP-ODD fusion protein and HA-pVHL (GFP fluorescence, western blot)", "format": "cell-based, human"}, "[2]": {"tested_on": "HIF-1α", "experiment": "HIF-1α levels in cells incubated with DMS under normoxic conditions (western blot)", "format": "cell-based", "conditions": "20 mM, 48 hours", "excerpt": "Protein analyses. […] Following SDS-PAGE, proteins were blotted onto nitrocellulose and analyzed with the following antibodies: anti-HIF-1α (BD Biosciences), anti-HA (Roche), anti-GFP (BD Biosciences) or anti-Actin (Sigma)."}, "[3]": {"tested_on": "HIF1α", "experiment": "HIF1α levels in HEK293 cells in which HIF1α was induced by DMS (western blot)", "format": "cell-based, human", "conditions": "HEK293, DMS 24 hours, then ester 3 hours"}, "[4]": {"tested_on": "HIF1α", "experiment": "HIF1α induction in SDH-inhibited cells transfected with Di3 shRNA (western blot)", "format": "cell-based", "conditions": "24 hour treatment"}, "[5]": {"tested_on": "HEK293 cells", "experiment": "Measurement of intracellular α-ketoglutarate (glutamate dehydrogenase assay)", "format": "cell-based, human", "conditions": "1 mM, 5 hours"}, "[6]": {"tested_on": "cells under hypoxic conditions", "experiment": "Cell death of cells grown under hypoxic conditions (0.5% oxygen)"}, "[7]": {"tested_on": "PHD (HIFα prolyl hydroxylase)", "experiment": "In vitro PHD activity (hydroxylation of in vitro-translated HA-ODDD by cell extracts, gel shift on SDS-PAGE)", "format": "biochemical, human"}}}
{"smiles": "[Cl-].[Cl-].[Co+2]", "note": "[CoCl2]", "values": [{"measurement": "GFP-ODD levels (western blot)", "setting": "[1]", "result": "increase in GFP-ODD levels"}]}
{"smiles": "COC(=O)CCC(=O)OC", "note": "[DMS, dimethyl ester succinic acid]", "values": [{"measurement": "GFP fluorescence", "setting": "[1]; 48 hours after treatment with DMS, 10% oxygen", "result": "increase in GFP fluorescence"}, {"measurement": "Level of GFP-ODD (western blot)", "setting": "[1]; DMS alone, 48 hours", "result": "rose"}, {"measurement": "HIF-1α levels (western blot)", "setting": "[2]", "result": "elevated levels of HIF-1α"}]}
{"smiles": "O=C(O)CCC(=O)C(=O)OCc1cccc(C(F)(F)F)c1", "note": "[TFMB-α-ketoglutarate, 2-Oxopentanedioic acid 1-(3-trifluoromethyl-benzyl)ester]", "values": [{"measurement": "HIF1α protein levels after DMS induction", "setting": "[3]", "result": "substantially reduce the levels of HIF1α protein"}, {"measurement": "HIF1α induction observed with Di3 transfection", "setting": "[4]", "result": "reversed"}, {"measurement": "GFP fluorescence in DMS-treated cells", "setting": "[1]", "result": "reduced GFP fluorescence"}]}
{"smiles": "O=C(O)CCC(=O)C(=O)O", "note": "[free α-ketoglutaric acid, 2-Oxo-pentanedioic acid]", "values": [{"measurement": "Change of intracellular α-ketoglutarate above basal levels", "setting": "[5]", "result": "no increase"}]}
{"smiles": "CCCCCCCCOC(=O)C(=O)CCC(=O)O", "note": "[octyl-α-ketoglutarate, 2-Oxo-pentanedioic acid 1-octyl ester]", "values": [{"measurement": "HIF1α protein levels after DMS induction", "setting": "[3]", "result": "reversed DMS-induction of HIF1α completely"}, {"measurement": "HIF1α induction observed with Di3 transfection", "setting": "[4]", "result": "reversed"}, {"measurement": "GFP fluorescence in DMS-treated cells", "setting": "[1]", "result": "reduced GFP fluorescence"}, {"measurement": "Cell death under hypoxic conditions", "setting": "[6]", "result": "significant cell death"}]}
{"smiles": "O=C(O)CCC(=O)O", "note": "[succinate, succinic acid]", "values": [{"measurement": "PHD activity (appearance of non-hydroxylated HA-ODD)", "setting": "[7]; HeLa cell extracts, succinate held constant at 1 mM", "result": "inhibition of PHD activity"}, {"measurement": "PHD activity in vitro (production of hydroxylated HA-ODDD, mobility on SDS-PAGE)", "setting": "[7]; cell extracts with α-ketoglutarate, Fe2+, ascorbate, DFO 5 mM, succinate 0.1-5.0 mM", "result": "decrease in the production of hydroxylated HA-ODDD"}, {"measurement": "IC50", "setting": "[7]; read-out: IC50 for inhibition of PHD activity (HA-ODDD hydroxylation), cell extracts with α-ketoglutarate, Fe2+, ascorbate", "result": 500, "unit": "µM"}]}
